Data taken from publication doi:10.1101/2024.07.14.603434v1 (biorxiv, 2024).

How the values were obtained:
[1] = molecular target: T1, NagA (Streptomyces coelicolor, UniProt Q9KXV7); assay: decrease of amide absorbance at […] nm; format: biochemical; conditions: phosphate buffer pH 7.4, 30 °C
T1 sequence (Q9KXV7 1-381): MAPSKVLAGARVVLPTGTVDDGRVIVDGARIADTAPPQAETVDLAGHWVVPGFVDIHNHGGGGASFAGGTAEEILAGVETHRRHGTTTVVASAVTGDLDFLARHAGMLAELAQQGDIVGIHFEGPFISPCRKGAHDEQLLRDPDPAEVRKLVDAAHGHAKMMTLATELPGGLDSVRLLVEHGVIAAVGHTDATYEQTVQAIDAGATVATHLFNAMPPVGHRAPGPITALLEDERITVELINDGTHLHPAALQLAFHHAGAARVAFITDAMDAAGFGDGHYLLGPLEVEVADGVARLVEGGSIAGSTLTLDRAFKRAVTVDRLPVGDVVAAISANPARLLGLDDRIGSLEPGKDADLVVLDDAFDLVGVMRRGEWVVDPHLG

[2] = molecular target: T2, NagS (Streptomyces coelicolor, UniProt Q9K3V1); assay: UV absorbance of product at […] nm; format: biochemical; conditions: 100 mM phosphate, 100 mM NaCl, pH 7.4 buffer stock; 30 °C
T2 sequence (Q9K3V1 1-251): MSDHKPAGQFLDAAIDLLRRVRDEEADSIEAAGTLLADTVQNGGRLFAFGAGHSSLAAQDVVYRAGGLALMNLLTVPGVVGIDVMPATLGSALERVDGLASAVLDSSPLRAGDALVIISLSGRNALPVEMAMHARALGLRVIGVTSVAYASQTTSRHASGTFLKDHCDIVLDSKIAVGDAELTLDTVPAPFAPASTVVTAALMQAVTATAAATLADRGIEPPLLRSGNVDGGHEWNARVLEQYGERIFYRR

| Compound | Km [1] [mM] | Km [2] [µM] |
| --- | --- | --- |
| CC(=O)N[C@H]1C(O)O[C@H](COP(=O)(O)O)[C@H](O)[C@@H]1O (some centres unmarked) [GalNAc-6P] | 2.84 ± 0.41 |  |
| CC(=O)N[C@H]1C(O)O[C@H](COP(=O)(O)O)[C@@H](O)[C@@H]1O (some centres unmarked) [GlcNAc-6P] | 1.59 ± 0.21 | 450 ± 30 |
| CC(=O)N[C@@H]1C(O)O[C@H](COP(=O)(O)O)[C@@H](O)[C@@H]1O (some centres unmarked) [ManNAc-6P] | 2.4 ± 0.44 | 680 ± 50 |
